From patent US20030104393A1, “Blood assessment of injury” (priority 2000, published 2003)

System: blood cells
Test: Genes induced in blood 24 hours following kainate induced seizures (Affymetrix microarray)
Assay type: in vivo, rat
Conditions: for Average fold induction / Minimum fold induction: rat blood 24 h after kainate induced seizures vs untouched controls
Description: Status epilepticus is produced by intraperitoneally injecting a glutamate analogue/excitotoxin, kainic acid (10 mg/kg i.p.). Animals with kainate-induced seizures are observed following drug administration to ensure that they continue to have complex seizures over a 30 minute period.
All animals are allowed to survive for 24 hours following each treatment. At that time they are deeply anesthetized with ketamine (100 mg/kg) and xylazine (20 mg/kg) given intraperitoneally. Once anesthetized, the chest is opened and a direct cardiac puncture performed with a syringe and 10 cc of blood is aspirated. Immediately following removal of the blood, the animal is decapitated while deeply anesthetized and the brain removed.
One day after hypoxia, status epilepticus, hypoglycemia, ischemic stroke, and hemorrhagic stroke are produced in adult rats, RNA or protein is isolated from the blood cells and from the brains of the animals described in Example 1. The pattern of genes or proteins expressed in the blood cells following each of these types of injury—hypoxia, status epilepticus, hypoglycemia, ischemic stroke, and hemorrhagic stroke is captured on a commercially available microarray (Affymetrix chip). The pattern of gene or protein expression is defined using an expression method, which then forms a genomic or proteomic organ injury database, which is used in assessing injury.
For the tables of genes induced in the blood, the genome expression of blood in the hypoxic animals (3 animals) was compared to the genome expression of blood in untouched control animals (3 animals). The genome expression of blood in the animals with status epilepticus (3 animals) was compared to the genome expression of blood in the untouched control animals (3 animals). The genome expression of blood in the animals with stroke (3 animals) was compared to the genome expression of blood in the sham operated control animals (3 animals). In each case the accession number of the gene and the fold change in gene expression is given—with a maximum estimate and a minimum estimate.
Table 2 sets forth genes induced in the blood of rats 24 hours following kainate induced seizures (n=3 rats) as compared with genes expressed in the blood of untouched control rats (n=3 rats). The accession number of the gene is given, the name of the gene is given where known, the average fold induction is given, as well as the minimum fold induction is given for each gene. A number of the genes are ESTs that have not yet been subjected to a BLAST search. This list was shortened to show only those genes induced at least 2.8 fold. Over 100 genes were induced following kainate on arrays that contained over 8000 genes.

[1] = gene AF027571_s_at phospholipase C-beta 4 isoform (PLC-b4)
[2] = gene AF091563_i_at isolate QIL-LD1 olfactory receptor
[3] = gene AF102552_s_at ankyrin G isoform
[4] = gene D84485_at PMSG-induced ovarian mRNA
[5] = gene L42855_at RNA polymerase II transcription factor SIII p18 subunit
[6] = gene L81136cds_f_at Rps2r1 preliminary DNA
[7] = gene M96159_at adenylyl cyclase type V
[8] = gene S54212_at ciliary neurotrophic factor receptor alpha
[9] = gene U66566_at receptor type protein tyrosine phophatase psi
[10] = gene X06827_at porphobilinogen deaminase
[11] = gene Z28351exon_s_at 25-hydroxyvitamin D3 24-hydroxylase

C=C(C)[C@H]1CN[C@H](C(=O)O)[C@H]1CC(=O)O [kainate, kainic acid]
Average fold induction [1]: 4.15 fold | Minimum fold induction [1]: 2.5 fold | Average fold induction (gene AF045464_s_at): 6.5 fold | Minimum fold induction (gene AF045464_s_at): 2.5 fold | Average fold induction (gene AF079162_at patched (ptc)): 5.4 fold | Minimum fold induction (gene AF079162_at patched (ptc)): 3.2 fold | Average fold induction [2]: 3.4 fold | Minimum fold induction [2]: 2.4 fold | Average fold induction [3]: 4.6 fold | Minimum fold induction [3]: 2.4 fold | Average fold induction [4]: 11.4 fold | Minimum fold induction [4]: 3.1 fold | Average fold induction (gene D89863_g_at (M-ras) M-Ras): 5.6 fold | Minimum fold induction (gene D89863_g_at (M-ras) M-Ras): 2.3 fold | Average fold induction [5]: 4.32 fold | Minimum fold induction [5]: 3.4 fold | Average fold induction [6]: 3.9 fold | Minimum fold induction [6]: 2.7 fold | Average fold induction (gene L81138exon Rps2r gene): 5.5 fold | Minimum fold induction (gene L81138exon Rps2r gene): 2.3 fold | Average fold induction (gene M91234_f_at VL30 element): 4.4 fold | Minimum fold induction (gene M91234_f_at VL30 element): 2.5 fold | Average fold induction (gene M91235_f_at VL30 element): 3.9 fold | Minimum fold induction (gene M91235_f_at VL30 element): 3 fold | Average fold induction [7]: 10 fold | Minimum fold induction [7]: 2.9 fold | Average fold induction (gene Rc_AA799614_at): 4.7 fold | Minimum fold induction (gene Rc_AA799614_at): 2.5 fold | Average fold induction (gene Rc_AA852046_s_at): 4.3 fold | Minimum fold induction (gene Rc_AA852046_s_at): 2.5 fold | Average fold induction (gene Rc_AA891828_at): 4 fold | Minimum fold induction (gene Rc_AA891828_at): 2.6 fold | Average fold induction (gene Rc_AA894273_at): 5.2 fold | Minimum fold induction (gene Rc_AA894273_at): 2.8 fold | Average fold induction (gene Rc_AA925529_at): 4 fold | Minimum fold induction (gene Rc_AA925529_at): 3 fold | Average fold induction (gene Rc_AA955182_g_at): 9 fold | Minimum fold induction (gene Rc_AA955182_g_at): 2.3 fold | Average fold induction (gene Rc_AI104924_f_at): 4.1 fold | Minimum fold induction (gene Rc_AI104924_f_at): 3.3 fold | Average fold induction [8]: 2.8 fold | Minimum fold induction [8]: 2.6 fold | Average fold induction [9]: 5.5 fold | Minimum fold induction [9]: 4.3 fold | Average fold induction (gene U73030_at): 4.1 fold | Minimum fold induction (gene U73030_at): 2.4 fold | Average fold induction [10]: 3.6 fold | Minimum fold induction [10]: 3 fold | Average fold induction (gene X60675_at interleukin 10): 3.6 fold | Minimum fold induction (gene X60675_at interleukin 10): 2.3 fold | Average fold induction (gene X76697_at B7 antigen): 5.7 fold | Minimum fold induction (gene X76697_at B7 antigen): 2.5 fold | Average fold induction [11]: 3.5 fold | Minimum fold induction [11]: 2.3 fold | Average fold induction (gene rc_AI102562_at): 3 fold | Minimum fold induction (gene rc_AI102562_at): 2.4 fold | Number of genes induced following kainate (rat blood, arrays that contained over 8000 genes): Over 100 genes
